Measurements taken from patent US11648258B2, “Method and compounds for inhibiting the MCM complex and their application in cancer treatment” (priority 2012, dated 2023).
“Also recorded” adds a separate entry of the source. Read-outs that look alike come from different tables or passages of the source.

Legend:
[1] = target: T1, hMcm2-hMcm6 interaction (MCM complex) (Homo sapiens, UniProt P49736+Q14566); test: Co-immunoprecipitation of MCM subunits in HeLa cell extracts; format: cell-based; details: asynchronous HeLa cells, whole cell extracts
T1 construct: endogenous in cells; host or cells: HeLa
Protocol: To test if 17beta-Deacetyltanghinin targets hMcm2 and hMcm6 proteins in human cells, possible co-immunoprecipitation (co-IP) of the two proteins was tested in human cell extracts from cells treated with 17beta-Deacetyltanghinin. In FIG. 3, asynchronous HeLa cells were treated with DMSO or 17beta-Deacetyltanghinin (DAT) (FIG. 3A), or with DMSO, 17beta-Neriifolin (NRF) or 17beta-Deacetyltanghinin diol (Diol) (FIG. 3B), and whole cell extracts were prepared and further incubated with the compound before being used for co-IP in the presence of the compound. The immunoprecipitates were then immunoblotted with anti-hMcm 6, anti-hMcm2, anti-hMcm4 and anti-hMcm7 antibodies.

[2] = target: T2, hMcm2 and hMcm6 (Homo sapiens, UniProt P49736+Q14566); test: Immunostaining / GFP fluorescence microscopy of MCM nuclear localization in HeLa cells; format: cell-based; details: 24 hrs
T2 construct: the endogenous hMcm2 and hMcm6 were detected by specific antibodies against these proteins; endogenous in cells; host or cells: HeLa
Protocol: To study the effect of the anticancer compounds on the interaction between hMcm2 and hMcm6 in the cells, immunostaining was performed to detect the sub-cellular localization of the proteins. HeLa cells grown on cover slips (coated with poly-D-lysine) with or without drug treatment were fixed with 4% PFA in PBS at room temperature for 20 min. After permeabilization with 0.1% Triton X-100 and 1% BSA in PBS for 20 min, cells were blocked with 1% BSA and then incubated with rabbit anti-hMcm6 (Santa Cruz; 1:500) and mouse anti-hMcm2 (Becton Dickinson; 1:500) primary antibodies at room temperature for 1 hr. Cells were then incubated with Alexa Fluor 488-conjugated donkey […] antibody and Alexa Fluor 594-conjugated donkey anti-mouse antibody (Invitrogen; 1:500) at room temperature for 1 hr. Three washes with PBS were performed after each round of antibody incubation. Cells were then incubated with Hochest 33852 (Sigma Chemical Company; 1 μg/ml) at room temperature for 15 min for nuclear staining and washed with PBS three times again. At last, cells were mounted and observed under the fluorescence microscope (Nikon TE2000E).
Because pair-wise interactions among the MCM subunits are required for the MCM heterohexameric ring structure, which is essential for their import into the nucleus, disruption of the interaction between hMcm2 and hMcm6 should destroy the hexamer and result in failure of nuclear localization of MCM proteins. To test this, we employed both indirect fluorescence microscopy (immunostaining) using antibodies against the endogenous MCM proteins and direct fluorescence microscopy after transfection with plasmids to express hMcm2-GFP and hMcm6-GFP in the cells.
In immunostaining, HeLa cells were treated by 17beta-Deacetyltanghinin for 24 hrs, and the endogenous hMcm2 and hMcm6 were detected by specific antibodies against these proteins. […] In direct fluorescence microscopy, HeLa cells expressing hMcm2-GFP and hMcm6-GFP were treated with 17beta-Deacetyltanghinin for 36 hrs starting at 4 hrs post-transfection with the plasmids expressing hMcm2-GFP and hMcm6-GFP.

[3] = system: cancer cells (HeLa, HepG2); test: Flow cytometry / Annexin V staining (cell cycle, apoptosis) in cancer cells; format: cell-based, human; details: cancer cells
Protocol: Both floating and attached cells were collected and washed once with PBS. Cells were fixed in 70% ethanol for 1 hr to overnight at −20° C., washed thoroughly with PBS, and then stained in 50 μg/ml RNase A, 0.1% Triton X-100, 0.1 mM EDTA (pH 7.4), and 50 μg/ml propidium iodide for 30 min at 4° C. Samples were analyzed with the FACSort instrument (Becton Dickinson).
Moreover, inhibition of DNA replication and subsequent induction of apoptosis by 17beta-Deacetyltanghinin could be shown by flow cytometry. In FIG. 7. Hela cells were blocked at M phase by Nocodazole (Noc.; FIG. 7A), the G1/S transition by mimosine (MMS; FIG. 7B), or at early S phase by Hydroxyurea (HU; FIG. 7C) and then released into fresh medium in the presence of 17beta-Deacetyltanghinin (DAT). The cells at different time points after release were analyzed by follow cytometry. Ayn. means asynchronous cells. Untreated cells and cells treated with the solvent DMSO could complete M, G1 and S phases after release (FIG. 7A). […] Similarly, cells released from the Mimosine (MMS) arrest (at the G1/S transition; FIG. 7B) or Hydroxyurea (HU) arrest (in early S phase; FIG. 7C) could not finish S phase in the presence of 17beta-Deacetyltanghinin.
In FIG. 8A, flow cytometry was performed to analyze the DNA contents in HepG2 and L-02 cells treated with 17beta-Deacetyltanghinin at various concentrations for 24 hrs. In FIG. 8B, Hela cells were treated with 17beta-Deacetyltanghinin for 24 hrs and labeled with Annexin V-Cy3 (Arm. Cy3) for 20 min. Mitoxantrone (MTX), a clinical anticancer drug that can induce apoptosis in cancer cells, was used as a positive control.

[4] = system: cancer cell lines (HepG2, Hep3B, HeLa, HK1, C666-1); test: cells; format: cell-based, human; details: for anti-proliferative (anticancer) activity, in words: 48 hrs
Protocol: (§1) For testing the anti-proliferation activity of the compounds in human cell lines and calculation of IC50, cancer cells including HepG2, HeLa and Hep3B (4×10^5 cells/well) and normal L-02 cells (5×10^5 cells/well) were respectively seeded in 96-well plates in 100 μl of culture medium and incubated for about 12 hrs at 37° C. The cells were treated with two-fold serial dilutions of the drugs for 48 hrs. Medium was removed and 100 μl of culture medium containing 1 μM WST-1 (water soluble tetrazolium-1) were added to each well. The cells were incubated for 2 hrs, and absorbance at 405 nm (reference at 630 nm) was then measured. To construct the standard curve of the relationship between cell number and absorbance at OD405, serial dilutions of cells with known cell numbers were seeded and incubated for six hrs before being measured by the WST-1 assay. The cell viability was expressed as the ratio of the number of live cells treated with a candidate compound versus that of the DMSO-treated cells.
(§2) To further test 17beta-Deacetyltanghinin and to determine the IC50 values, besides L-02 and HepG2, Hep3B (another liver cancer cell line which is p53-negative), HeLa (cervical cancer cell line), HK1 and C666-1 (nasopharyngeal carcinoma) cells and a hTert-immortalized normal nasopharyngeal cell line (NP460) were treated by 17beta-Deacetyltanghinin for 48 hrs, and the relative cell vabilities were determined by WST-1 assay (FIG. 2B, C).

[5] = in vitro; details: human
Protocol: as §1
(§3) A pair of human cell lines, L-02 (normal liver cells) and HepG2 (a liver cancer cell line) was treated with 17beta-Deacetyltanghinin for 48 hrs. […] In FIG. 2B-H, quantification of viable cell numbers was carried out using WST-1 (Water-soluble tetrazolium-1) assay.
as §2

[6] = system: HepG2 cells (hepatocellular carcinoma); details: compound 0.5 ∝g/ml; WST-1
[7] = system: L-02 cells (normal human liver cells); test: in vitro; details: compound 0.5 ∝g/ml; WST-1
Protocol: as §1, §3, §2

[8] = system: HeLa cells xenograft tumors; test: In vivo anticancer activity, nude mice xenograft model; details: 10 mg/kg per injection, first 10 days
Protocol: In vivo anticancer activity tests were carried out in the nude mice xenograft model by inoculating nude mice with HeLa cells in both the left and right flanks. After random grouping, nude mice were treated intraperitoneally with 17beta-Deacetyltanghinin or the solvent (30% of propylene glycol in PBS). In the first test, 3 days after tumor inoculation when small tumors started to form, two groups of nude mice were treated on days 1-3 and 6-10 with 3.5 and 7.0 mg-drug/kg-body weight of 17beta-Deacetyltanghinin respectively, and another group of control mice were treated with the same volume of the solvent (FIG. 10A). In FIG. 10A, the tumor volume data represented by the small-size data point symbol linked with thin lines were obtained on the days when both measurement of tumor size and drug injections were performed, and the tumor volume data represented by the large-size data point symbol linked with thick lines were obtained on the days without drug injection. Each tumor size was average of ten tumors in five mice in each group.
(§4) A further set of animal experiments was then conducted with a longer period of time, in which fifteen drug injections at 5.0 mg/kg were performed one week after tumor inoculation when the tumor size reached 0.05-0.1 cm^3. In FIG. 10B, drug injections and tumor size measurements were performed on the days represented by the data points, and the photographs in FIG. 10C were taken on day 20.

[9] = In vivo toxicity assessment in nude mice; details: 10 mg/kg per injection, tumor-bearing nude mice
Protocol: as §4
In FIG. 11, S refers to solvent-treated mice without tumor inoculation; S+T represents solvent-treated mice with tumor inoculation; DAT refers to 17beta-Deacetyltanghinin-treated mice without tumor inoculation; DAT+T represents 17beta-Deacetyltanghinin-treated mice with tumor inoculation; and P+T refers to Paelitaxel-treated mice with tumor inoculation. Three out of the five mice with intermediate tumor size in each group were selected for physiological parameters examination. The tumors (T) and internal organs including liver (L), heart (H) and kidney (K) were dissected from each mouse.
Furthermore, blood from each mouse was also collected for the tests of the ALT (alanine aminotransferase) and LDH (Lactate dehydrogenase) activities. […] The results of both tests were represented as the values of differently treated mice relative to the untreated ones.

T2 sequence (P49736 2-904): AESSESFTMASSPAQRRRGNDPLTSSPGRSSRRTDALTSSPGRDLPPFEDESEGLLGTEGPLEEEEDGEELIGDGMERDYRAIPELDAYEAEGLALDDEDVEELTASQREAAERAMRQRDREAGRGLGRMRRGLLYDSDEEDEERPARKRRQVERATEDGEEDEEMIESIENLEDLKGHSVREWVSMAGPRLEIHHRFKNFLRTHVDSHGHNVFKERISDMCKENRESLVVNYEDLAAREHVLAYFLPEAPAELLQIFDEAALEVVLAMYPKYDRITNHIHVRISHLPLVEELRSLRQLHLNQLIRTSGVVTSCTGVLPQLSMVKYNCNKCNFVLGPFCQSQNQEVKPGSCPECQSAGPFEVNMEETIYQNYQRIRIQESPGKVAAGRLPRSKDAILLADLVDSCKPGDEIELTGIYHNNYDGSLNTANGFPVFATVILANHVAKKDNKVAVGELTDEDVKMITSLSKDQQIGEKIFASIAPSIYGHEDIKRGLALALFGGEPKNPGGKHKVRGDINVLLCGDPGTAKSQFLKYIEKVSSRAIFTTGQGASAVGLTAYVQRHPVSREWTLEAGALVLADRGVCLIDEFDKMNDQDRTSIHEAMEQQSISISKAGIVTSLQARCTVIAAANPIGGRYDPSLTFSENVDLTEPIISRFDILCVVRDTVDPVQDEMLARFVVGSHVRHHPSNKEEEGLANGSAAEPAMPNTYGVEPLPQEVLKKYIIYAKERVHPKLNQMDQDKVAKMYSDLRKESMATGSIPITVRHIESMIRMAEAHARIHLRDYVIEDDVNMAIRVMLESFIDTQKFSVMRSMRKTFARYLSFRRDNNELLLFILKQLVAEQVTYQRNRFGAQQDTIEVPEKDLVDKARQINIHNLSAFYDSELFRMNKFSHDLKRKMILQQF
T2 sequence (Q14566 whole entry): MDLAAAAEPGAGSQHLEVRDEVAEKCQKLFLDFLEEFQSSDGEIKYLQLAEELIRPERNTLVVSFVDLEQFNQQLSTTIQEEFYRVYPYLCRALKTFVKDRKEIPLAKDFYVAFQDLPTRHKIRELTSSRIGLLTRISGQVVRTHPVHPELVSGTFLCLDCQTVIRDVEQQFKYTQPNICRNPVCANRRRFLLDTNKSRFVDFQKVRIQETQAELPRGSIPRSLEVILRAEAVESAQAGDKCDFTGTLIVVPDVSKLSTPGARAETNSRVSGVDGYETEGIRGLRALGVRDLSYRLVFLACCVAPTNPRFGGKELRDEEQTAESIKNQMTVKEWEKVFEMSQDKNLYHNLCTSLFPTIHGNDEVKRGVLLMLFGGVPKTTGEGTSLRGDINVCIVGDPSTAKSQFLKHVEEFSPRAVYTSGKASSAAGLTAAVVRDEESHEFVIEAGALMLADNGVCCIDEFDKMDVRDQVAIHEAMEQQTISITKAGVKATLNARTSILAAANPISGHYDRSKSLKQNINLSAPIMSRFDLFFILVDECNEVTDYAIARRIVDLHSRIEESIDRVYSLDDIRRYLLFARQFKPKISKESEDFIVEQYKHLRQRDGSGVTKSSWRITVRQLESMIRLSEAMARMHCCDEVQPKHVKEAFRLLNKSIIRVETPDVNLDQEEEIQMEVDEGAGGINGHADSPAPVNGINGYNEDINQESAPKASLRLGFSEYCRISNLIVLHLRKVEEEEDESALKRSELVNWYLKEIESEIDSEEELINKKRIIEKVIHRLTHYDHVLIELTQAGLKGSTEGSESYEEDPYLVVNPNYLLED
T1 sequence (P49736 2-904 limits assumed): as the sequence (P49736 2-904) above
T1 sequence (Q14566 whole entry): as the sequence (Q14566 whole entry) above

CO[C@H]1[C@H](O)[C@H](O[C@H]2CC[C@@]3(C)[C@H](CC[C@@H]4[C@@H]3CC[C@]3(C)[C@@H](C5=CC(=O)OC5)CC[C@]43O)C2)O[C@@H](C)[C@@H]1O [17beta-Neriifolin]
disruption of hMcm2-hMcm6 interaction (co-IP) [1]: could also disrupt the hMcm2-hMcm6 interaction
nuclear localization of endogenous hMcm2 and hMcm6 (immunostaining) [2]: as efficiently as 17beta-Deacetyltanghinin
induction of apoptosis (sub-G1 population, flow cytometry) [3]: able to induce apoptosis of cancer cells

COc1cc([C@@H]2c3cc4c(cc3[C@@H](O[C@@H]3O[C@@H]5CO[C@@H](C)O[C@H]5[C@H](O)[C@H]3O)[C@H]3COC(=O)[C@H]23)OCO4)cc(OC)c1OP(=O)(O)O [VP16, Etoposide phosphate]
selectivity between cancer and normal cells, in words ([4]; cancer vs normal cells, WST-1 assay): did not show significant selectivity

17beta-Deacetyltanghinin diol
anti-proliferative (anticancer) activity, in words ([4]; WST-1 assay): lower anticancer activity than 17beta-Deacetyltanghinin
disruption of hMcm2-hMcm6 interaction (co-IP) [1]: weaker activity
nuclear localization of endogenous hMcm2 and hMcm6 (immunostaining) [2]: weaker activity
induction of apoptosis (sub-G1 population, flow cytometry) [3]: able to induce apoptosis of cancer cells

C[C@]12CC[C@H](O)C[C@H]1CC[C@@H]1[C@@H]2CC[C@]2(C)[C@@H](c3ccc(=O)oc3)CC[C@]12O [Bufalin]
viability [5]: 37.2%
HepG2 cell viability (%) [6]: 13.7%

CC(=O)O[C@H]1[C@H]2O[C@]23[C@@H]2CC[C@@H]4C[C@@H](O)CC[C@]4(C)[C@H]2CC[C@]3(C)[C@H]1c1ccc(=O)oc1 [Cinobufagin]
viability [5]: 39.7%
HepG2 cell viability (%) [6]: 1.5%

C[C@]12CC[C@H](O)C[C@H]1CC[C@@H]1[C@@H]2CC[C@]2(C)[C@@H](c3ccc(=O)oc3)C[C@H]3O[C@]132 [Resibufogenin]
viability [5]: 37.9%
HepG2 cell viability (%) [6]: 1.4%

CO[C@H]1[C@H](O)[C@H](O[C@H]2CC[C@@]3(C)[C@H](CC[C@@H]4[C@@H]3CC[C@]3(C)[C@H](C5=CC(=O)OC5)CC[C@]43O)C2)O[C@@H](C)[C@@H]1O [17alpha-Neriifolin, reference compound]
L-02 cell viability (%) [7]: 100%
anti-proliferative (anticancer) activity, in words ([4]; WST-1 assay): little anti-proliferative activity
HepG2 cell viability (%) [6]: 100%

CO[C@H]1[C@H](O)[C@H](O[C@H]2CC[C@@]3(C)[C@@H](C2)C[C@@H]2O[C@]24[C@@H]3CC[C@]2(C)[C@H](C3=CC(=O)OC3)CC[C@]42O)O[C@@H](C)[C@@H]1O [17alpha-Deacetyltanghinin, reference compound]
L-02 cell viability (%) [7]: 100%
anti-proliferative (anticancer) activity, in words ([4]; WST-1 assay): little anti-proliferative activity
HepG2 cell viability (%) [6]: 97.2%

CC(=O)O[C@H]1C(=O)[C@@]2(C)[C@H]([C@H](OC(=O)c3ccccc3)[C@]3(O)C[C@H](OC(=O)[C@H](O)[C@@H](NC(=O)c4ccccc4)c4ccccc4)C(C)=C1C3(C)C)[C@]1(OC(C)=O)CO[C@@H]1C[C@@H]2O [Paclitaxel, reference compound]
selectivity between cancer and normal cells, in words [4]: did not show significant selectivity; also recorded: more toxic to normal liver cells than liver cancer cells
antitumor activity compared with 17beta-Deacetyltanghinin, in words [8]: much less antitumor activities
mortality from toxicity [9]: the mice died on day 10
